# Experimental data taken from a melting point compilation (Tetko et al.; mined from patent text by program, amines drawn as free bases though some values may be those of a salt).
row,melting point,SMILES
1,158 to 159 °C,CCCCc1nc(C(C)(C)O)c(C(=O)O)n1Cc1ccc(-c2ccccc2C(=O)OC(C)(C)C)cc1
2,97 to 99 °C,CC(C)[C@@H]1C[C@H](O)[C@H](CC2CCCCC2)NC1=O
3,181 to 182 °C,CCOP(=O)(Cc1ccc(NC(=O)[C@H]2Cc3cc4c(cc3C(=O)[C@H](C)S2)OCO4)cc1)OCC
4,115 to 118 °C,Cn1c(C(F)(F)F)ccc(-c2cc([N+](=O)[O-])c(F)cc2F)c1=O
5,94 to 95 °C,COC(=O)c1ccc2c(c1)C(c1ccccn1)=CC(C)(C)O2
6,158 to 160 °C,CCn1ncc2c(NCC3CCCCC3)c3cc(Br)ccc3nc21
7,125 to 126 °C,COC(=O)CNC(=O)c1ccc(C(=O)NS(=O)(=O)c2ccccc2)cn1
8,137 °C,COCC1CN(C(=O)c2cc(OC)c(OC)c(OC)c2)CCN1C(=O)C1=Cc2cc(OC)c(OC)cc2CCC1 (configuration not stated)
9,156 to 157 °C,CCCNC(=O)N=c1ccn(-c2ccccc2)nc1
10,162 to 163 °C,CCCCCCCCCCCCCCCCn1c(-c2ccc(Cl)c(N)c2)nc2ccccc21
11,181 to 183 °C,CCC(NC(=O)c1ccc(Cl)cc1)NC(=NC#N)Nc1cccnc1 (configuration not stated)
12,182 to 184 °C,Cn1nnnc1CC(O)(Cn1cncn1)c1ccc(Cl)cc1Cl (configuration not stated)
13,238 to 239 °C,CCOC(=O)C1=C(C)NC(C)=C(C(=O)OCC)C1c1ncccc1O
14,240 to 242 °C,Cn1c([N+](=O)[O-])cnc1-c1nnc2ccc(N3CCOCC3)nn12
15,119 °C,CN(C(=O)CCc1ccc(CN2CCC3(CCCC3)CC2)cc1)c1ccc(-c2ccc(Cl)cc2)cc1
16,125 to 129 °C,O=C1N(CCN2CCCC2)CCN1c1ccc(-c2nnc(CSCCOc3ccccc3)o2)cc1
17,117 to 118 °C,O=C(Nc1cccc(C(F)(F)F)c1)c1cccnc1Cl
18,64 to 65 °C,Cc1cc(F)cc(C)c1Cl
19,50 to 54 °C,CC(OC(=O)OC1CC(=O)NC1=O)OC(=O)C(C)C (configuration not stated)
20,101 °C,Cn1c(OCC(F)(F)C(F)F)n[nH]c1=O
21,112 to 135 °C,Cc1onc(-c2ccccc2)c1C(=O)NCCCN1CCN(c2ccc(F)cc2OCC(F)(F)F)CC1
22,137 to 138 °C,O=CNc1ccc2c(c1)C(=O)CCC2
23,132 °C,CCOc1nc(O)c(C#N)s1
24,115 to 117 °C,CN(C)CCOc1ccc2cc3ncc(C#N)c(Nc4ccc(Cl)cc4Cl)c3cc2c1
25,140 to 141 °C,O=C(Nc1nnc(CC2CC2)o1)C1c2ccccc2Oc2ccccc21

row,melting point,SMILES
1,165 to 166 °C,O=Cc1c(Br)ccc2cc3c(cc12)OCO3
2,68 °C,CC(C)(C)OC(=O)c1ccccc1CNC(=O)C1Cc2ccccc2N1S(=O)(=O)c1ccc(-c2cccc(C(F)(F)F)c2)cc1 (configuration not stated)
3,52 to 54 °C,O=S(=O)(Nc1ccc(Br)cc1)C(F)(F)F
4,150 to 152 °C,CCc1noc(C(=O)Nc2ccccc2)c1C(=O)O
5,132 °C,CC1C(=O)N(c2ccc(Oc3ccccc3)cc2)C(=S)N1c1ccccc1 (configuration not stated)
6,248 °C,C/C(=N\O)c1cccc(NC(=O)NCC(=O)N(CC(=O)N2CCCC(C)(C)C2)c2ccccc2)c1
7,91.5 to 92.5 °C,CCOCCOCCOc1ccc(C(=O)CN(Cc2ccccc2)Cc2ccccc2)cc1C(N)=O
8,229 to 230 °C,Cc1ccc(-c2ccc3c(c2)C=C(C(=O)Nc2ccc(CN(C)C4CCOCC4)cc2)CCN3C=O)cc1
9,167 to 169 °C,CNc1cc(C(=O)O)ccc1C
10,156 to 157 °C,COc1cc2cc(-c3ccccc3C)sc2c(Cl)c1Cl
11,188 °C,CC(C)NC(=O)COC1c2ccccc2C(=O)N1c1ccc2ccc(Cl)nc2n1 (configuration not stated)
12,189 to 191 °C,O=C(NC1C2CC3CC(C2)CC1C3)N1CCC2(C=Cc3ccccc32)CC1 (configuration not stated)
13,66 °C,BrCC1(CBr)COC(c2ccccc2)OC1
14,62 to 63 °C,C#CC[C@H]1C(=O)O[C@@H]1C[C@@H](CCCCCCCCCCCCCCCCC)O[Si](C)(C)C(C)(C)C
15,249 to 250 °C,O=C(O)c1cc([N+](=O)[O-])c(Nc2ccccc2)c(S(=O)(=O)Nc2ccccc2)c1
16,195 to 196 °C,CC(C)(C)OC(=O)N1CCCC1c1ccnc(-c2nc(=O)c3ccccc3s2)c1 (configuration not stated)
17,67 to 76 °C,COc1ccc(Nc2nc(Nc3cc4c(cc3OC)CCN(CC(=O)N(C)C)CC4)ncc2Cl)c(OC)n1
18,138 °C,COC(=O)Nc1nc2ccccc2n1CCCN1CCN(C(c2ccccc2)c2ccccc2)CC1
19,118 to 120 °C,COC(=O)c1sc2cc(OC)ccc2c1C
20,296 to 298 °C,COc1cccc(NC(=O)N(C)Cc2cccc3c2CN(C2CCC(=O)NC2=O)C3=O)c1 (configuration not stated)
21,169 to 172 °C,Oc1ccc2c(c1)CCN(Cc1ccc3c(c1)OCO3)C2
22,150 to 151 °C,COC(=O)/C(=C/C=C/c1cc2cc(OC)ccc2[nH]1)OC
23,168 °C,CCCCc1nc2cncnc2[nH]1
24,183 to 187 °C,Cn1cc(-c2ccc(Oc3ccc(F)cc3F)cc2)nc1C(N)=O
25,48 to 54 °C,Fc1ccc2c(c1F)OCCN2

row,melting point,SMILES
1,85.5 °C,"O=C(O)C1CCc2ccccc2O1 (single isomer, unassigned; (+))"
2,161 to 163 °C,COC(=O)C1=C(CCc2ccccc2OC)NC(CC(=O)N2CCN(CC(=O)NC(C)C)CC2)=C(C(=O)OC)C1c1c(Cl)cccc1Cl (configuration not stated)
3,127 to 131 °C,CC(C)(C)OC(=O)NC1C2CN(CC(O)(c3ccccc3)c3ccccc3)CC21 (configuration not stated)
4,148 to 149 °C,CCOC(=O)Cc1c(C)ncnc1O
5,221 to 223 °C,COc1cc(Nc2c(C#N)cnc3cc(C#Cc4ccncc4)sc23)c(Cl)cc1Cl
6,121 to 124 °C,O=S(c1ccc(/C=C/c2nc(CNc3ccc(CCCCn4ccnn4)cc3)co2)cc1)C(F)(F)F (configuration not stated)
7,115 to 118 °C,Nc1nccc2ccc(OS(=O)(=O)C(F)(F)F)cc12
8,95 to 95.5 °C,Cn1nc(N)nc1NCCCOc1cccc(CN2CCCC2)c1
9,102 to 105 °C,Cn1cncc1COCC(O)c1ccccc1 (configuration not stated)
10,40 to 43 °C,CCOC(=O)c1snc(OCC)c1Br
11,178 to 180 °C,Cc1nnnn1-c1ncccc1C(=O)O
12,214 to 215 °C,O=C(Nc1cn(C2CCCCO2)nc1C(=O)NCCO)c1ccccn1 (configuration not stated)
13,152 to 154 °C,CN(C(N)=O)C1CCCc2sccc21 (configuration not stated)
14,249 °C,Cc1ccc2c(c1)c1cc(-c3ccc(Cl)cc3Cl)c(=O)n(C)c1n2CCCN1C(=O)c2ccccc2C1=O
15,155 °C,CCCn1c(-n2nc(-c3c(-c4ccccc4)nn4ccccc34)ccc2=O)cc(=O)n(CCC)c1=O
16,188 to 190 °C,Cn1c2ccc(C=O)cc2c2sc3ccccc3c21
17,65 to 67 °C,N#CC1=C(Cl)CN(COC(=O)CNC(=O)CNC(=O)c2ccccc2)C1(c1ccc(Cl)cc1)C(F)(F)F (configuration not stated)
18,68 °C,CCOC(=O)/C=C/C(=O)N1C[C@H](NC(=O)OCc2ccccc2)C1=O
19,263 to 264 °C,Clc1cc2nc3c4ccccc4c4ccccc4c3nc2cc1Cl
20,120 °C,N#CCc1coc2ccc(Br)cc12
21,186 to 187 °C,Cc1ccc(S(=O)(=O)N2CCCC(S(=O)(=O)c3ccc(Cl)cc3)C2)cc1 (configuration not stated)
22,244 to 245 °C,Cc1nn(-c2c(Cl)cc(S(=O)(=O)C(F)(F)F)cc2Cl)nc1-c1nc(C#N)c(C#N)[nH]1
23,145 to 170 °C,COc1cc(Nc2nc3cccc(-c4cccc(N)c4)c3o2)cc(OC)c1OC
24,98 to 100 °C,Cc1oc(-c2ccccc2)nc1Cc1cc2cc(Br)ccc2o1
25,210 to 212 °C,COCC1(C)Oc2ccc(C#N)cc2C(n2ccccc2=O)C1O (configuration not stated)

row,melting point,SMILES
1,132 to 134 °C,O=C(c1ccc(-c2ccccc2)s1)c1ccc(Br)cc1Cl
2,227 to 230 °C,Nc1nc(N)c(C(=O)N=CNNC(=O)n2ccnc2)nc1F
3,144 to 146 °C,O=C(NC(=S)Nc1cccc(Oc2ccccc2)c1)c1cccnc1
4,131 to 133 °C,CC(C)(C)[Si](C)(C)Oc1ccc2c(c1)C(=O)c1ccc(O[Si](C)(C)C(C)(C)C)cc1C2=O
5,191 to 193 °C,CN(C)c1ccc(C(=N)NC=Cc2ccc([N+](=O)[O-])cc2)cc1
6,248 °C,FC1=CC2NC(=S)CCC2C=C1c1cccnc1 (configuration not stated)
7,200 to 204 °C,O=C(NCC12CC3CC(CC(C3)C1)C2)c1c(Cl)ccc2nc(N3CCC(O)(C(=O)O)CC3)ccc12
8,149 to 150 °C,Cn1nnnc1-c1ccc2[nH]ccc2c1
9,228 to 229 °C,COC(=O)Nc1ccc(C2=NNC(=O)CC2C)cc1 (configuration not stated)
10,144 to 145 °C,COc1ccc2nc(Cl)cc(C)c2c1
11,246 to 249 °C,CCOc1ccc(S(=O)(=O)n2nc(O)cc2N)cc1-c1nc2cccnc2c(=O)[nH]1
12,218 to 221 °C,CC1(C)C(=O)NC(=O)c2cc3nc(-c4ccncc4)[nH]c3cc21
13,217 to 219 °C,CC(C)(C)C(=O)c1c[nH]c2ncc(-c3cccc(NS(=O)(=O)c4ccccc4)c3)nc12
14,291 °C,N#Cc1c(N)nc2ccc(N3CCOCC3)cc2c1O
15,139 °C,COc1cc(C=O)cc2c1OCCC2=O
16,130 to 131 °C,COC(=O)c1ccccc1Nc1c(Cl)ccc(C)c1Cl
17,114 to 115 °C,NCC(=O)NCc1ccc(F)cc1
18,185 to 186 °C,Oc1ccc2c(ccn2Cc2ccncc2)c1
19,144 to 145 °C,CC(C)n1nc(-c2sc(NC(=O)CNCc3ccccc3)nc2-c2ccccc2)ccc1=O
20,66 °C,CC(C)OC(=S)SSCCSSC(=S)OC(C)C
21,186 to 188 °C,CC(=O)NC[C@H]1CN(c2ccc(N3CCC(n4ncnn4)CC3)c(F)c2)C(=O)O1
22,197 to 198 °C,COc1cc(OC)c2c(=O)cc(-c3cc[nH]n3)oc2c1

row,SMILES,melting point
1,O=C1CN2CCCC1C2 (configuration not stated),83 to 87 °C
2,CC1(C)C(=O)N(c2ccc(C#N)c(C(F)(F)F)c2)C(=O)N1CCCCO[N+](=O)[O-],74 to 75 °C
3,C[C@H](O)[C@@H](Nc1ccc(C#N)c(Cl)c1Cl)c1nnc(-c2ccccc2)o1,156 °C
4,CC(=O)Cc1ccccc1Br,60 to 65 °C
5,COC(=O)c1nc(CCl)n(-c2ccc(Cl)cc2C(=O)c2ccccc2Cl)n1,130 to 132 °C
